# Data reported in US20250179584A1, “PRECISION THERAPY FOR THE TREATMENT OF CANCER” (Novartis AG, priority 2022, published 2025).
# Experiments:
# [1] = test system: BRAF mutant and CRAF kinases; settings: cited from earlier work
# [2] = test system: unresectable stage III/IV metastatic melanoma resistant to anti-PD (L)-1 therapy; settings: monotherapy, 162 patients, cited from earlier work
# [3] = test system: advanced melanoma with NRAS mutation; settings: trametinib monotherapy, 7 patients with NRAS mutation; cited from earlier work
# [4] = test system: KRAS G12, G13C and G13D mutant NSCLC; settings: single agent, second line; cited from earlier work
# NRAS mutated melanoma [5] = assay type: in vivo, human; settings: single agent, 10 patients, doses 400-1200 qd and 200-800 bid, data cut May 31, 2021
# Description: Clinical data further supports the pre-clinical findings.
# [6] = test system: solid tumors (salivary gland tumor and NSCLC) harboring pan-RAS codon Q61 or G13R mutations; assay type: in vivo, human; settings: LXH254 single agent
# [7] = test system: cell lines that contain a variety of mutations that activate MAPK signaling; settings: cited from earlier work
# KRAS-mutant models = settings: several KRAS-mutant models, well-tolerated doses; cited from earlier work
# [8] = test system: pan-RAS codon Q61/G13R mutant models (NSCLC, melanoma, PDAC, rhabdomyosarcomas); settings: independently of the mutated RAS gene and tissue origin
# NRAS mutated melanoma [9] = settings: cited from earlier work
molecule,measurement,setting,value
"Cc1ccc2c(Nc3cccc(Cl)c3F)nccc2c1NC(=O)c1csc2c(N)ncnc12 [Belvarafenib, 4-amino-N-(1-((3-chloro-2-fluorophenyl)amino)-6-methylisoquinolin-5-yl) thieno[3,2-d]pyrimidine-7-carboxamide]",selectivity,[1],high selectivity
Ipilimumab: anti-CTLA-4 therapy,objective response rate (ORR),[2]; irrespective of mutation status,13%
same,median overall survival (mOS),[2],8.8 months
same,median progression free survival (PFS),[2],2.6 months
"CC(=O)Nc1cccc(-n2c(=O)n(C3CC3)c(=O)c3c(Nc4ccc(I)cc4F)n(C)c(=O)c(C)c32)c1 [trametinib, N-(3-{3-cyclopropyl-5-[(2-fluoro-4-iodophenyl)amino]-6,8-dimethyl-2,4,7-trioxo-3,4,6,7-tetrahydropyrido[4,3-d]pyrimidin-1 (2H)-yl}phenyl) acetamide]",responses,[3],no responses
same,superiority against standard of care docetaxel,[4],failed to demonstrate superiority
"Cc1ccc(NC(=O)c2ccnc(C(F)(F)F)c2)cc1-c1cc(OCCO)nc(N2CCOCC2)c1 [naporafenib, N-(3-(2-(2-hydroxyethoxy)-6-morpholino-pyridin-4-yl)-4-methylphenyl)-2-(trifluoromethyl) isonicotinamide]",SDs (stable disease),NRAS mutated melanoma [5],4
same,responses,NRAS mutated melanoma [5],no responses
same,response to single agent therapy,[6],exceptional responders
same,anti-proliferative activity,[7],demonstrated anti-proliferative activity
same,tumor response in vivo,KRAS-mutant models,tumor regression
same,activity in non-clinical models,[8],consistent activity
Cn1cnc2c(F)c(Nc3ccc(Br)cc3F)c(C(=O)NOCCO)cc21 [binimetinib],ORR,"NRAS mutated melanoma [9]; 402 patients, untreated (~79%) and previously treated with immunotherapy (~21%)",15%
same,mOS,NRAS mutated melanoma [9]; 402 patients,11 months
same,mPFS,NRAS mutated melanoma [9]; 402 patients,2.8 months
same,anti-tumor activity,"NRAS mutated melanoma [9]; single agent MEK inhibitor, NEMO study",limited anti-tumor activity
